In patent US20080045467A1, “Composition Containing Ginsenoside F1 Or Compound K For Skin External Application” (Amorepacific Corporation, priority 2004, published 2008):

How the values were obtained:
[1] = system: MMP-2; assay: Inhibition of biosynthesis of MMP-2 in UVB-irradiated human keratinocyte (gelatin zymography); type: cell-based; conditions: 30 mJ/cm^2 UVB, 2 days, amount relative to control group = 100
Experimental: (§1) Human keratinocyte was cultured with a concentration of 10^4 cells/well in 24-well plate mediums, and 24 hours later they were irradiated with 30 mJ/cm^2 of UVB. Each medium was then exchanged with a new one containing the compound separated in either Example 1 or 2 at the densities of 0.1 ppm, 1 ppm or 10 ppm, respectively. After 2 days of cultivation, the supernatants were obtained and gelatin zymography was performed on the obtained supernatant to form MMP-2 and MMP-9. The amount of MMP-2 and MMP-9 thus formed was determined by densitometer for each medium, and was compared with the amount of MMP-2 and MMP-9 in the control group, which was set as 100 (The mediums not containing the compounds in Examples 1 and 2 were cultured as a control group).

[2] = system: MMP-9; assay: Inhibition of biosynthesis of MMP-9 in UVB-irradiated human keratinocyte (gelatin zymography); type: cell-based; conditions: 30 mJ/cm^2 UVB, 2 days, amount relative to control group = 100
Experimental: as §1

[3] = system: Type IV collagen; assay: Biosynthesis of Type IV collagen in human keratinocyte (Dot Blot); type: cell-based; conditions: 24 hours, control = 100
Experimental: Human keratinocyte was cultured with a concentration of 5×10^4 cells/well in 24-well plate mediums, and each medium was exchanged with a new one containing the compound separated in either example 1 or 2 at the densities of 0.1 ppm, 1 ppm or 10 ppm. After 24 hours of cultivation, the supernatants were harvested and the amount of Type IV collagen was quantified using Dot Blot method.

[4] = system: Type VII collagen; assay: Biosynthesis of Type VII collagen in human fibroblast (Dot Blot); type: cell-based; conditions: 24 hours, control group = 100
Experimental: Human fibroblast was cultured with a concentration of 10^4 cells/well in 24-well plate mediums, and each medium was exchanged with a new one containing the compound separated in Example 1 or 2 at the densities of 0.1 ppm, 1 ppm or 10 ppm. After 24 hours of cultivation, the supernatants were harvested and the amount of Type VII collagen was quantified using Dot Blot method.

[5] = system: laminin 10/11; assay: Biosynthesis of laminin 10/11 in human keratinocyte (Dot Blot); type: cell-based; conditions: 24 hours, control group = 100
Experimental: Human keratinocyte was cultured with a concentration of 5×10^4 cells/well in 24-well plate mediums, and each medium was exchanged with a new one containing the compound separated in either Example 1 or 2 at the densities of 0.1 ppm, 1 ppm or 10 ppm. After 24 hours of cultivation, the supernatants were harvested and the amount of laminin 10/11 was quantified using Dot Blot method.

[6] = system: epidermal-dermal junction; assay: Change in epidermal-dermal junction of UV-irradiated nude mouse (electron microscope); type: in vivo; conditions: applied while irradiating with UV light, compared to comparative formulation 1
Experimental: In order to verify the change to the epidermal-dermal junction irradiated with UV light by the composition of the present invention, external applications with the formulation of nutrition cream were prepared according to the ratios in Table 5.
Each of the formulations 1˜3 and the comparative formulation 1 were applied to the back of each nude mouse 5 times in a week for 2 weeks, and for 12 weeks thereafter each of the formulations 1˜3 and the comparative formulation 1 were applied 5 times per week while irradiating UV light 3 times. After biopsy, the change of the epidermal-dermal junction was determined by electron microscope.

CC(C)=CCC[C@](C)(O[C@@H]1O[C@H](CO)[C@@H](O)[C@H](O)[C@H]1O)[C@H]1CC[C@]2(C)[C@@H]1[C@H](O)C[C@@H]1[C@@]3(C)CC[C@H](O)C(C)(C)[C@@H]3[C@@H](O)C[C@]12C [Example 1, 20-O-β-D-glucopyranosyl-20(S)-protopanaxatriol]
MMP-2 (%) ([1]; 0.1 ppm): 82% | MMP-2 (%) ([1]; 1 ppm): 67% | MMP-2 (%) ([1]; 10 ppm): 51% | MMP-9 (%) ([2]; 0.1 ppm): 85% | MMP-9 (%) ([2]; 1 ppm): 69% | MMP-9 (%) ([2]; 10 ppm): 55% | Biosynthesis of Type IV collagen (%) ([3]; 0.1 ppm): 116% | Biosynthesis of Type IV collagen (%) ([3]; 1 ppm): 129% | Biosynthesis of Type IV collagen (%) ([3]; 10 ppm): 134% | Biosynthesis of Type VII collagen (%) ([4]; 0.1 ppm): 118% | Biosynthesis of Type VII collagen (%) ([4]; 1 ppm): 132% | Biosynthesis of Type VII collagen (%) ([4]; 10 ppm): 141% | Biosynthesis of laminin 10/11 (%) ([5]; 0.1 ppm): 112% | Biosynthesis of laminin 10/11 (%) ([5]; 1 ppm): 125% | Biosynthesis of laminin 10/11 (%) ([5]; 10 ppm): 134% | change, separation or multiplexing of the epidermal-dermal junction [6]: little change, separation or multiplexing

CC(C)=CCC[C@](C)(O[C@@H]1O[C@H](CO)[C@@H](O)[C@H](O)[C@H]1O)[C@H]1CC[C@]2(C)[C@@H]1[C@H](O)C[C@@H]1[C@@]3(C)CC[C@H](O)C(C)(C)[C@@H]3CC[C@]12C [Example 2, 20-O-β-D-glucopyranosyl-20(S)-protopanaxadiol]
MMP-2 (%) ([1]; 0.1 ppm): 79% | MMP-2 (%) ([1]; 1 ppm): 61% | MMP-2 (%) ([1]; 10 ppm): 48% | MMP-9 (%) ([2]; 0.1 ppm): 78% | MMP-9 (%) ([2]; 1 ppm): 62% | MMP-9 (%) ([2]; 10 ppm): 49% | Biosynthesis of Type IV collagen (%) ([3]; 0.1 ppm): 119% | Biosynthesis of Type IV collagen (%) ([3]; 1 ppm): 128% | Biosynthesis of Type IV collagen (%) ([3]; 10 ppm): 139% | Biosynthesis of Type VII collagen (%) ([4]; 0.1 ppm): 120% | Biosynthesis of Type VII collagen (%) ([4]; 1 ppm): 135% | Biosynthesis of Type VII collagen (%) ([4]; 10 ppm): 146% | Biosynthesis of laminin 10/11 (%) ([5]; 0.1 ppm): 115% | Biosynthesis of laminin 10/11 (%) ([5]; 1 ppm): 125% | Biosynthesis of laminin 10/11 (%) ([5]; 10 ppm): 137% | change, separation or multiplexing of the epidermal-dermal junction [6]: little change, separation or multiplexing
